Results on 15 compounds are retold here after PubChem BioAssay (NCI).

Molecules are shown by their SMILES. Where “and” joins values, the source holds several entries; their conditions need not be identical. Identical values can stand only once.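 Each compound was tested at five concentrations against cells in 96-well plates for 48 hours. Abbreviation: GI50, concentration required for 50% inhibition of growth. Definition used: TGI = concentration required for complete inhibition of growth.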

Common to all, as to test: NCI tumour cell line growth inhibition, 48 h
Assay [1] has as its system ACHN renal.
For assay [2], the system named is CAKI-1 renal.
Assay [3] has as its system COLO 205 colon.
For assay [4], the system named is HOP-92 NSCLC.
Assay [5] concerns HT29 colon.
The test system of assay [6] is OVCAR-4 ovarian.
In assay [7] the test system is SK-OV-3 ovarian.
Assay [8] deals with SN12C renal.
The subject of assay [9] is SNB-75 CNS.
Assay [10] relates to UACC-257 melanoma.

Regarding `O=C(Nc1ccc(Oc2ccc(Nc3nc4ccccc4s3)cc2)cc1)Nc1ccc(Cl)c(C(F)(F)F)c1`, the GI50 is 1.51 µM in assay [1]; 2.05 µM in assay [2]; 1.64 µM in assay [3]; 0.73 µM in [4]; 1.72 µM in assay [5]; 1.31 µM in [6]. Moreover, the GI50 in assay [7] was 1.86 µM; in [8], 1.42 µM; in [9], 1.41 µM; in [10], 1.83 µM. In addition, the TGI in assay [1] was determined as 5.49 µM; in assay [2], 7.98 µM; in [3], 3.25 µM; in assay [4] it was 3.28 µM; in assay [5], 3.23 µM; in assay [6], 3.16 µM. The TGI was 4.42 µM in [7], 3.03 µM in assay [8], 5.27 µM in assay [9] and 6.09 µM in [10].
As for `N#CC(C#N)=C/C=C(\Sc1nc2ccccc2s1)c1ccc(Cl)cc1`, the GI50 in assay [1] was 4.61 µM; in assay [2] it was 1.93 µM; in assay [3], 3.26 µM; in [4], 13.8 µM; in [5] it was 3.27 µM; in [6] it was 16 µM. Also, the GI50 in assay [7] was 11.9 µM; in assay [8], 7.88 µM; in [9] it was 1.31 µM; in assay [10], 12.1 µM. In addition, the TGI in assay [1] was above 35.5 µM; in [2] it was 9.82 µM; in assay [3] it was above 27.7 µM; in assay [4], 29.3 µM; in assay [5] it was above 31.7 µM; in [6] it was 47.5 µM. Besides, the TGI is above 42.2 µM in assay [7], above 53.1 µM in [8], 8.82 µM in [9] and 25.4 µM in [10].
Turning to `CCCCCCCCCCCCC(O)c1ccc(C#CCCCCCCCCCO)o1` (stereo not given), the GI50 in [1] is 18.8 µM; in [2], 18.6 µM; in assay [3], above 100 µM; in [4], 19.8 µM; in assay [5], 69.9 µM; in [6] it was 45.1 µM. In addition, the GI50 was 25.8 µM in assay [7], 18.7 µM in assay [8], 34.1 µM in assay [9] and 24.1 µM in [10]. Also, the TGI is 33.5 µM in assay [1]; 33.1 µM in [2]; above 100 µM in assay [3]; 37.9 µM in assay [4]; above 100 µM in assay [5]; above 100 µM in assay [6]. Moreover, the TGI in assay [7] was determined as 62.2 µM; in [8], 33.2 µM; in assay [9], 70.1 µM; in assay [10], 51 µM.
Consider `COc1cccc(C(=O)NC(c2ccc(C)cc2)c2cc(Cl)c3cccnc3c2O)c1` (stereo not given), for which the GI50 in assay [1] was 0.445 µM; in assay [2], 0.465 µM; in assay [3], 0.387 µM; in assay [4], 0.474 µM; in assay [5], 0.623 µM; in [6] it was 0.298 µM. Also, the GI50 is 0.682 µM in [7], 0.661 µM in assay [8], 0.326 µM in assay [9] and 0.653 µM in assay [10]. Moreover, the TGI in [1] amounted to 10.4 µM; in assay [2], 15.8 µM; in assay [3], 1.86 µM; in assay [4] it was 9.33 µM; in assay [5] it was 19.8 µM; in assay [6], 10.2 µM. The TGI was 11.3 µM in assay [7], 13.2 µM in assay [8], 11.9 µM in [9] and 12.7 µM in assay [10].
Consider `Cc1cc(I)cc(CN(CCCN(C)C)C(C)C)c1O`, for which the GI50 in [1] was 17.3 µM; in assay [2], 16.5 µM; in assay [3], 14.7 µM; in assay [4] it was 5.77 µM; in assay [5] it was 9.23 µM; in [6] it was 37.2 µM. The GI50 in assay [7] was 15.1 µM; in [8] it was 37.8 µM; in assay [9], 16.6 µM; in [10], 16.7 µM. For the same compound, the TGI in [1] was 31.6 µM; in assay [2], 33.6 µM; in assay [3] it was 27.8 µM; in assay [4], 31.9 µM; in assay [5] it was 21.2 µM; in assay [6], above 100 µM. Moreover, the TGI was 30.9 µM in assay [7], above 100 µM in assay [8], 36.3 µM in assay [9] and 32.5 µM in assay [10].
In the case of `O=c1c(-c2ccccc2)c2oc(c1-c1ccccc1)CSCc1cccc(c1)CSC2`, the TGI in assay [1], in [2], in assay [3], in assay [4], in assay [5] and in assay [6] was above 100 µM throughout. Further, the TGI in [7] was 70.1 µM; in [8], above 100 µM; in assay [9] it was 69.1 µM; in assay [10], above 100 µM.
With `Nc1cc(NN=C(c2ccc(O)cc2)c2ccc(O)cc2)c([N+](=O)[O-])cc1[N+](=O)[O-]`, the GI50 in [1] was 1.86 µM; in [2], 1.88 µM; in assay [3] it was 1.85 µM; in assay [4], 2.18 µM; in assay [5], 2.63 µM; in [6] it was 2.54 µM. Further, the GI50 in assay [7] was 2.35 µM; in [8], 1.58 µM; in assay [9], 1.45 µM; in assay [10], 4.3 µM. For the same compound, the TGI in assay [1] was 5.55 µM; in [2], 5.24 µM; in assay [3], 4.49 µM; in assay [4] it was 8.2 µM; in [5], 8.19 µM; in [6], 7.47 µM. Besides, the TGI in [7] stood at 6.4 µM; in assay [8], 3.4 µM; in assay [9], 3.92 µM; in assay [10], 17.1 µM.
On to `COc1ccc2nc3cc(Cl)ccc3c(NCCNCC(C)O)c2c1` (stereo not given), for which the GI50 in assay [1] was 1.43 µM; in assay [2], 1.57 µM; in assay [3] it was 1.11 µM; in assay [4], 2.6 µM; in assay [5] it was 0.691 µM; in [6], 1.57 µM. The GI50 in assay [7] is 2.58 µM; in assay [8], 1.85 µM; in assay [9], 1.9 µM; in assay [10] it was 2.14 µM. The TGI in assay [1] stood at 7.22 µM; in [2] it was 4.54 µM; in assay [3] it was 2.79 µM; in [4], 6.68 µM; in assay [5] it was 3.03 µM; in [6] it was 4.8 µM. In addition, the TGI in assay [7] came out at 9.75 µM; in assay [8], 7.4 µM; in assay [9] it was 8.71 µM; in assay [10], 3.73 µM.
Turning to `CN1CC[C@@H](NC(=O)Nc2ccc(C#N)cc2)C[C@@H]1c1nc2ccccc2[nH]1`, the GI50 in [1] was above 86.5 µM; in assay [2], above 100 µM; in assay [3] it was above 80.6 µM; in assay [4], 35.9 µM; in [5], above 74.2 µM; in [6], 100 µM. In addition, the GI50 is above 100 µM in [7], above 78.9 µM in assay [8], above 73.2 µM in assay [9] and above 100 µM in [10]. In addition, the TGI in assay [1], in [2], in [3], in assay [4], in [5] and in assay [6] was above 100 µM in each case. Also, the TGI in [7], in [8], in assay [9] and in [10] was above 100 µM each time.
On to `N#C/C(=C\c1cccc(Cl)c1Cl)c1ccccc1`, for which the TGI is above 90.8 µM in [1]; 77.7 µM in assay [2]; above 100 µM in assay [3]; above 82.3 µM in [4]; above 100 µM in [5]; above 85.6 µM in assay [6]. Besides, the TGI in [7] is above 89.9 µM; in assay [8], above 100 µM; in assay [9], 51.1 µM; in [10], above 100 µM.
As for `Nc1n[nH]c2cc(F)c([C@@H]3Nc4ccc5[nH]ncc5c4[C@H]4C5CCC(C5)[C@@H]34)cc12` (stereo not given in full), the GI50 in [1] was 0.231 µM; in assay [2], 0.132 µM; in assay [3], 0.162 µM; in assay [4], 0.24 µM; in assay [5] it was 0.182 µM; in assay [6], 0.327 µM. Also, the GI50 in assay [7] is 0.359 µM; in assay [8] it was 0.228 µM; in assay [9], 0.0988 µM; in assay [10] it was 3.98 µM. For the same compound, the TGI in assay [1] was 26.1 µM; in [2], 7.43 µM; in assay [3], 0.527 µM; in assay [4] it was 9.01 µM; in assay [5], above 50 µM; in assay [6], above 50 µM. Besides, the TGI was above 32.1 µM in [7], 37.1 µM in assay [8], 1.12 µM in assay [9] and 44.8 µM in [10].
Take `COc1cccc(-c2nc(-c3ccc(NC(=O)OC(C)C)cc3)[nH]c2-c2ccnc(Br)c2)c1`: the GI50 in assay [1] was 2.7 µM; in [2], 2.49 µM; in assay [3], 3.26 µM; in assay [4] it was 3.19 µM; in assay [5] it was 2.37 µM; in assay [6], 3.09 µM. Besides, the GI50 was 3.85 µM in assay [7], 2.94 µM in assay [8], 0.567 µM in [9] and 3.15 µM in [10]. Moreover, the TGI in assay [1] is above 100 µM; in [2] it was above 100 µM; in assay [3], above 100 µM; in assay [4] it was 8.29 µM; in [5], above 100 µM; in [6], above 100 µM. Further, the TGI in assay [7], in [8], in [9] and in assay [10] was above 100 µM throughout.
`O=C(CCCSc1nc(-c2ccccc2)cc(-c2ccccc2)n1)NO`: the GI50 is 0.358 µM in assay [1]; 0.516 µM in assay [2]; 1.86 µM in assay [3]; 1.58 µM in assay [4]; 2.46 µM in [5]; 1.67 µM in assay [6]. The GI50 was 1.94 µM in [7], 1.94 µM in [8], 1.68 µM in assay [9] and 1.77 µM in assay [10]. For the same compound, the TGI in assay [1] is 1.5 µM; in assay [2] it was 6.46 µM; in [3] it was 5.1 µM; in assay [4] it was 6.13 µM; in assay [5], 12.2 µM; in assay [6], 14.9 µM. Besides, the TGI in assay [7] turned out to be 5.57 µM; in [8] it was 9.1 µM; in assay [9] it was 9.55 µM; in assay [10], 6.71 µM.
On to `C=C1C(=O)O[C@H]2[C@H]1CC/C(COC(=O)NCc1ccc(Cn3c(=O)sn(-c4ccc(OC)cc4)c3=O)cc1)=C\CC[C@@]1(C)O[C@@H]21`, for which the GI50 in assay [1] is 1.73 µM; in assay [2] it was 2.34 µM; in assay [3], 1.85 µM; in [4], 1.61 µM; in assay [5] it was 1.96 µM; in assay [6], 1.64 µM. For the same compound, the GI50 was 14.4 µM in [7], 2.14 µM in [8], 3.44 µM in [9] and 2.03 µM in [10]. The TGI amounted to 3.27 µM in assay [1]; 6.83 µM in assay [2]; 3.38 µM in [3]; 3.47 µM in assay [4]; 3.51 µM in assay [5]; 3.98 µM in assay [6]. Moreover, the TGI in assay [7] came out at 27.4 µM; in [8], 4.96 µM; in [9] it was 15.3 µM; in assay [10], 4.34 µM.
Take `O=C1NC(=NC(CO)Cc2ccccc2)S/C1=C\c1ccc2ncccc2c1` (stereo not given): the GI50 in [1] is 11.2 µM and 3.55 µM; in assay [2], 9.35 µM and 3.64 µM; in assay [3] it was 9.23 µM and 1.86 µM; in assay [4], 24.2 µM and 6.61 µM; in [5], 16.2 µM and 4.74 µM; in assay [6], > 21.4 µM and 4.17 µM. The GI50 was 14.1 µM and 3.74 µM in assay [7]; 14.9 µM and 3.46 µM in assay [8]; 10.8 µM and 1.77 µM in assay [9]; > 25 µM and 5.79 µM in assay [10]. In addition, the TGI in [1] was above 25 µM; in assay [2], above 25 µM; in assay [3] it was above 25 µM; in assay [4] it was > 25 µM and 19.5 µM; in assay [5] it was above 25 µM; in [6], above 25 µM. The TGI is > 25 µM and 21.2 µM in assay [7]; above 25 µM in assay [8]; above 25 µM in assay [9]; > 25 µM and 19 µM in [10].
